Values of other authors in US6858612B1, “Use of tetrahydropteridine derivatives as no synthase inhibitors” (Vasopharm Buitech GmbH, priority 1994, dated 2005).

Test system: NO synthases

| SMILES | effect on NO synthase activity (Hevel and Marletta, Giovanelli et al. only at relatively high concentrations) | effect on NO production (literature reports (Kwon et al., Giovanelli et al., Overfeld et al.), concentration-dependent) |
| --- | --- | --- |
| CC1CNc2nc(N)[nH]c(=O)c2N1 (centres unmarked) [6-methyl-5,6,7,8-tetrahydropterin] | increase in NO synthase activity |  |
| C[C@H](O)[C@H](O)C1=Nc2c(nc(N)[nH]c2=O)NC1 [7,8-dihydrobiopterin] |  | Stimulation of NO production |
